Reference: US20070092969A1, “Integrator system and method for rapidly determining effectiveness of a germicidal treatment” (priority 2005, published 2007)
Read-outs that look alike come from different tables or passages of the source.

Tested on: biological indicators
Settings: for Biological Indicator Results: STERRAD 50, 6 minutes contact, plasma 400 watts
Procedure: The biological indicator is placed into the sterilizer with the equipment to be sterilized. At the end of the sterilization process, the biological indicator is removed from the sterilizer, and the carrier is immersed in a sterile culture medium. The culture medium and carrier are incubated for a predetermined time at an appropriate temperature. At the end of the incubation period, it is determined whether any microorganisms have grown in the growth medium. If there is no growth of microorganisms in the growth medium, it is assumed that the equipment in the sterilizer has been properly sterilized. If microorganism growth is observed, the sterilization process was not effective, and the articles in the sterilizer are rejected for use. The growth of microorganisms is determined through a signal such as the generation of turbidity or a color change in a pH indicator due to a pH change from byproducts of cell growth in the medium. Biological indicators are described, for example, in U.S. Pat. Nos. 5,552,320 and 6,436,659, both of which are incorporated herein by reference in their entirety.
A series of integrators was prepared by contacting paper disks with an aqueous solution of arginine. The integrators were placed in a STERRAD® 50 sterilizer with a load of equipment to be sterilized and several biological indicators. The paper disks are absorbing substrates.
The sterilizer was evacuated to 0.8 torr. Plasma was produced in the chamber for 15 minutes to condition the load. The sterilizer was evacuated further to 0.4 torr, and hydrogen peroxide was injected and contacted with the load, integrators, and biological indicators for 6 minutes.
The sterilizer was vented with air for 2 minutes. The sterilizer was evacuated again to 0.5 torr, and plasma was produced for an additional 2 minutes. The plasma power was 400 watts for both plasma exposures.

OO [Hydrogen Peroxide, hydrogen peroxide]
Biological indicator (BI) result (Hydrogen peroxide injection of 300 μL in the STERRAD 50 sterilizer): negative
Biological Indicator Results (Hydrogen peroxide injection volume 100 μL): 100% positive
Biological Indicator Results (Hydrogen peroxide injection volume 250 μL): 40% positive
Biological Indicator Results (Hydrogen peroxide injection volume 400 μL): 0% positive
Biological Indicator Results (Hydrogen peroxide injection volume 500 μL): 0% positive
